Assay results: the supplement of paper PMC10331698
± gives the standard deviation of the averaged measurements.

Experiments:
Experiment in all cases: level (log10 ratio to DMSO vehicle control); higher = higher biomarker level / cell amount than vehicle control
[1] = compound: C[C@@H]1C[C@H]2[C@@H]3CCC4=CC(=O)C=C[C@]4(C)[C@@]3(F)[C@@H](O)C[C@]2(C)[C@@]1(O)C(=O)COP(=O)(O)O [Dexamethasone sodium phosphate] (in DMSO)
Protocol: (§1)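 BioMAP Diversity Plus panel of 12 human primary cell co-culture systems (3C, 4H, LPS, SAg, BT, BF4T, BE3C, CASM3C, HDF3CGF, KF3CT, MyoF, Mphg). Compounds were added 1 h before stimulation and left for 24 h (MyoF 48 h; BT 72 h for soluble read-outs or 6 d for IgG). Biomarkers were read by ELISA, cytotoxicity by SRB, PBMC viability and proliferation by Alamar Blue. Each well value was divided by the mean of 8 DMSO control wells on the same plate and log10 transformed; duplicate blinded samples were tested at 4 concentrations.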

[2] = compound: C=C(C)C(=O)OCCC(F)(F)C(F)(F)C(F)(F)C(F)(F)C(F)(F)C(F)(F)C(F)(F)C(F)(F)F [8:2 Fluorotelomer methacrylate] (in DMSO)
Protocol: as §1

[3] = compound: O=C(O)CCC(F)(C(F)(F)F)C(F)(F)F [4,4-bis(Trifluoromethyl)-4-fluoropropanoic acid] (in DMSO)
Protocol: as §1

[4] = compound: OCC(F)(F)C(F)(F)C(F)(F)C(F)F [1H,1H,5H-Perfluoropentanol] (in DMSO)
Protocol: as §1

[5] = compound: O=C(O)C(F)(OC(F)(F)C(F)(OC(F)(F)C(F)(OC(F)(F)C(F)(F)C(F)(F)F)C(F)(F)F)C(F)(F)F)C(F)(F)F [Perfluoro-(2,5,8-trimethyl-3,6,9-trioxadodecanoic)acid] (in DMSO)
Protocol: as §1

[6] = compound: NS(=O)(=O)C(F)(F)C(F)(F)C(F)(F)C(F)(F)C(F)(F)C(F)(F)C(F)(F)C(F)(F)F [Perfluorooctanesulfonamide] (in DMSO)
Protocol: as §1

[7] = compound: CN(C(=O)C(F)(F)C(F)(F)C(F)(F)F)[Si](C)(C)C [N-Methyl-N-trimethylsilylheptafluorobutyramide] (in DMSO)
Protocol: as §1

Row | Test System | level (log10) ([1]; 1500 nM) | level (log10) ([1]; 4400 nM) | level (log10) ([1]; 13000 nM) | level (log10) ([1]; 40000 nM) | level (log10) ([2]; 6700 nM) | level (log10) ([2]; 20000 nM) | level (log10) ([3]; 6700 nM) | level (log10) ([3]; 20000 nM) | level (log10) ([3]; 60000 nM) | level (log10) ([4]; 6700 nM) | level (log10) ([4]; 20000 nM) | level (log10) ([4]; 60000 nM) | level (log10) ([5]; 1100 nM) | level (log10) ([5]; 3300 nM) | level (log10) ([5]; 10000 nM) | level (log10) ([6]; 6700 nM) | level (log10) ([6]; 20000 nM) | level (log10) ([7]; 6700 nM) | level (log10) ([7]; 20000 nM) | level (log10) ([7]; 60000 nM)
1 | BF4T:SRB | 0.0155 ± 0.0078 | 0.0005 ± 0.0064 | 0.01 ± 0.013 | 0.0135 ± 0.016 | -0.0045 ± 0.0035 | -0.0005 ± 0.00071 | 0.0065 ± 0.015 | 0.0015 ± 0.021 | 0.02 ± 0.014 | -0.0055 ± 0.0021 | 0.001 ± 0.0085 | 0.002 ± 0.0014 | -0.0035 ± 0.00071 | -0.0035 ± 0.011 | 0.003 ± 0.023 | -0.009 ± 0.0028 | -0.052 | -0.0055 ± 0.00071 | -0.003 ± 0.0042 | -0.0005 ± 0.00071
2 | BT:sTNF-alpha | -0.575 ± 0.0078 | -0.553 ± 0.0099 | -0.525 ± 0.13 | -0.566 ± 0.13 | -0.031 ± 0.055 | -0.049 ± 0.0042 | -0.0135 ± 0.22 | -0.051 ± 0.12 | -0.031 ± 0.16 | -0.0315 ± 0.0092 | -0.051 ± 0.016 | -0.003 ± 0.068 | -0.0445 ± 0.052 | -0.028 ± 0.021 | 0.0375 ± 0.079 | -0.045 ± 0.13 | -0.11 ± 0.15 | -0.014 ± 0.062 | -0.0875 ± 0.054 | 0.079 ± 0.13
3 | BE3C:IL-1alpha | -0.025 ± 0.0028 | -0.054 ± 0.0028 | -0.0395 ± 0.0092 | -0.0225 ± 0.036 | -0.018 ± 0.02 | -0.0005 ± 0.0078 | 0.0065 ± 0.022 | -0.0105 ± 0.0078 | 0.007 ± 0.02 | -0.0275 ± 0.0064 | -0.0155 ± 0.018 | 0.0035 ± 0.023 | -0.019 ± 0.0028 | -0.0175 ± 0.035 | 0.004 ± 0.018 | -0.005 ± 0.023 | -0.066 ± 0.017 | 0.0045 ± 0.005 | -0.0075 ± 0.019 | 0.032 ± 0.014
4 | LPS:CD106/VCAM-1 | 0.0095 ± 0.005 | -0.0285 ± 0.026 | -0.0135 ± 0.0035 | -0.0375 ± 0.023 | -0.032 ± 0.054 | -0.0515 ± 0.049 | -0.016 ± 0.034 | -0.0255 ± 0.0092 | -0.023 ± 0.021 | 0.007 ± 0.014 | -0.008 ± 0.0042 | 0.0095 ± 0.0035 | -0.009 ± 0.0099 | -0.0005 ± 0.0021 | -0.006 ± 0.0057 | 0.0075 ± 0.0035 | 0.0115 ± 0.016 | -0.0165 ± 0.0021 | -0.0035 ± 0.005 | -0.004 ± 0.041
5 | BF4T:CCL2/MCP-1 | -0.0085 ± 0.019 | -0.0165 ± 0.0035 | -0.017 ± 0.0014 | -0.0135 ± 0.018 | -0.0005 ± 0.028 | -0.051 ± 0.031 | 0.016 ± 0.0028 | 0.026 ± 0.018 | 0.0015 ± 0.016 | -0.0175 ± 0.036 | 0.0495 ± 0.023 | 0.0305 ± 0.074 | 0.007 ± 0.028 | 0.0015 ± 0.00071 | -0.004 ± 0.017 | -0.084 ± 0.0071 | -0.0565 ± 0.018 | 0.002 ± 0.0014 | 0.002 ± 0.0042 | 0.018 ± 0.018
6 | 4H:VEGFR2 | 0.025 ± 0.0057 | -0.0665 ± 0.057 | -0.0115 ± 0.069 | -0.004 ± 0.059 | 0.028 ± 0.023 | 0.015 ± 0.05 | 0.0265 ± 0.054 | 0.0195 ± 0.044 | 0.03 ± 0.045 | -0.021 ± 0.028 | -0.0215 ± 0.0021 | 0.0395 ± 0.073 | -0.002 ± 0.014 | -0.0135 ± 0.005 | 0.001 ± 0.0071 | -0.0175 ± 0.035 | -0.006 ± 0.044 | 0.006 ± 0.0057 | 0.003 ± 0.0099 | 0.019 ± 0.042
7 | LPS:CD141/Thrombomodulin | 0.05 ± 0.031 | 0.035 ± 0.028 | 0.0125 ± 0.039 | 0.032 ± 0.027 | -0.021 ± 0.038 | -0.064 ± 0.0099 | -0.0025 ± 0.0035 | -0.009 ± 0.028 | -0.002 ± 0.0099 | -0.0125 ± 0.0035 | 0.008 ± 0.02 | 0.023 ± 0.0099 | -0.019 ± 0.0028 | -0.002 ± 0.0042 | 0.0005 ± 0.0021 | 0.037 ± 0.072 | 0.0785 ± 0.066 | -0.0125 ± 0.0064 | -0.014 ± 0.0085 | -0.018 ± 0.014
8 | LPS:CD62E/E-Selectin | 0 ± 0.0014 | -0.015 ± 0.0014 | -0.0105 ± 0.00071 | -0.0115 ± 0.005 | 0.028 ± 0.0014 | 0.027 ± 0.035 | 0.0115 ± 0.023 | 0.0055 ± 0.013 | -0.007 ± 0.016 | -0.0165 ± 0.00071 | 0.0125 ± 0.0064 | 0.0055 ± 0.022 | -0.002 ± 0.0099 | -0.0115 ± 0.005 | -0.0135 ± 0.0035 | -0.015 ± 0.023 | 0.018 ± 0.016 | 0.0095 ± 0.026 | 0.002 ± 0.014 | 0.0105 ± 0.054
9 | SAg:CXCL8/IL-8 | -0.0245 ± 0.039 | -0.0475 ± 0.039 | -0.097 ± 0.075 | -0.137 ± 0.087 | -0.0215 ± 0.047 | 0.007 ± 0.021 | 0.027 ± 0.035 | 0.0095 ± 0.064 | 0.019 ± 0.079 | 0.006 ± 0.033 | -0.0065 ± 0.00071 | 0.0275 ± 0.052 | -0.0095 ± 0.028 | -0.0265 ± 0.037 | 0.0195 ± 0.026 | -0.0015 ± 0.005 | -0.0505 ± 0.03 | -0.0015 ± 0.018 | -0.0385 ± 0.019 | -0.007 ± 0.035
10 | LPS:CD69 | 0.016 ± 0.1 | -0.009 ± 0.052 | -0.042 ± 0.038 | -0.0335 ± 0.039 | -0.0425 ± 0.04 | -0.0355 ± 0.05 | -0.0145 ± 0.077 | -0.0265 ± 0.015 | -0.045 ± 0.025 | -0.02 ± 0.011 | -0.0015 ± 0.013 | 0.0175 ± 0.0078 | -0.021 ± 0.0014 | -0.0255 ± 0.0078 | -0.007 | -0.0475 ± 0.0064 | -0.13 | -0.004 ± 0.011 | -0.013 ± 0.041 | 0.004 ± 0.011
11 | SAg:CD62E/E-Selectin | -0.0615 ± 0.0021 | -0.124 ± 0.015 | -0.168 ± 0.059 | -0.168 ± 0.03 | -0.005 ± 0.013 | 0.0205 ± 0.023 | -0.011 ± 0.011 | -0.0025 ± 0.021 | -0.013 ± 0.0028 | -0.011 ± 0.018 | 0.008 ± 0.0071 | 0.0325 ± 0.035 | -0.02 ± 0.0014 | -0.031 ± 0.02 | 0.008 ± 0.042 | -0.0165 ± 0.00071 | -0.0845 ± 0.015 | -0.017 ± 0.0085 | -0.017 ± 0.017 | -0.0225 ± 0.021
12 | SAg:Proliferation | -0.001 ± 0.034 | 0.0035 ± 0.0078 | -0.0855 ± 0.005 | -0.023 ± 0.0099 | -0.0045 ± 0.053 | 0.052 ± 0.0028 | 0.007 ± 0.051 | -0.03 ± 0.044 | 0.0375 ± 0.053 | -0.0155 ± 0.011 | -0.0635 ± 0.016 | 0.025 ± 0.055 | 0.009 ± 0.041 | 0.0425 ± 0.0035 | 0.0335 ± 0.016 | -0.031 ± 0.042 | -0.0445 ± 0.036 | 0.0395 ± 0.015 | 0.0565 ± 0.028 | 0.0635 ± 0.088
13 | SAg:PBMC Cytotoxicity | -0.013 ± 0.054 | 0.003 ± 0.037 | -0.05 ± 0.024 | -0.0395 ± 0.019 | -0.0215 ± 0.012 | 0.018 ± 0.011 | 0.004 ± 0.0042 | -0.0015 ± 0.0092 | 0.008 ± 0.027 | -0.005 ± 0.0042 | 0.0025 ± 0.013 | 0.035 ± 0.058 | 0.002 ± 0.04 | 0.024 ± 0.027 | -0.0095 ± 0.07 | 0.009 ± 0.034 | 0.0315 ± 0.0064 | -0.0155 ± 0.00071 | 0.011 ± 0.014 | 0.011 ± 0.025
14 | BF4T:CD90 | 0.009 ± 0.018 | -0.002 ± 0.023 | -0.005 ± 0.018 | 0.0025 ± 0.015 | -0.0165 ± 0.015 | 0 ± 0.0099 | -0.0095 ± 0.026 | -0.0055 ± 0.019 | 0.0005 ± 0.0078 | -0.011 ± 0.0085 | 0.0005 ± 0.00071 | 0.003 ± 0.0057 | 0.001 ± 0.0042 | 0 ± 0.0028 | 0.0085 ± 0.0035 | -0.0275 ± 0.012 | -0.0585 ± 0.016 | -0.0225 ± 0.022 | -0.006 ± 0.0071 | 0.0065 ± 0.005
